The record followed here is patent US5348956A, “Substituted cyclopropylamino-1,3,5-triazines” (UCB S.A., priority 1991, dated 1994).

SMILES strings stand for the structures. Like-named read-outs stand apart in the source and are kept apart here.

Series [1] relates to plantar edema induced by immune complexes. Nature of the series: "reverse passive Arthus" (RPA) test, anti-inflammatory and anti-edema activity. To be noted: Rattus norvegicus, intravenous. It is filed as in vivo, Sprague-Dawley rat. An outline of the steps: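 Rats received subplantar anti-ovalbumin serum in the right hind paw plus i.v. ovalbumin 1 ml/kg (25 mg/ml). Compound was given i.v. 30 s before induction, at ≥3 doses, 6 rats/dose. Paw volume was measured by plethysmometry at 3 and 5 h, and ID30 (μmole/kg) is the dose reducing edema 30% versus controls.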

For a further series, the system named is PMN granulocytes. Nature of the series: inhibition of the stimulation of PMN granulocytes (chemiluminescence). The format is cell-based, Rat. To be noted: Rattus norvegicus; 10^-6 mole/l; FMLP 3.2×10^-7 mole/liter; read-out: Residual chemiluminescence. The gist of the method:
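Rat PMN granulocytes (5×10^6/ml) preincubated 15 min at 37 °C in pH 7.4 phosphate buffer with 10^-5 M luminol, then 5 min with compound at 10^-6 mol/l before stimulation. Luminol chemiluminescence measured over 38 s cycles; 9 repeats per compound, averaged.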

For series [2], the system named is anaphylactic release of histamine, guinea-pig lung sections. Nature of the series: potentiation of the inhibition of anaphylactic histamine release by isoprenaline. To be noted: with isoprenaline 10^-7 mole per liter. It is filed as cell-based, Dunkin-Hartley guinea-pigs.
Series [3] has as its system bronchospasm induced by acetylcholine. Nature of the series: bronchospasmolytic activity (Konzett and Roessler), bronchospasm induced by acetylcholine. The format is in vivo, Dunkin-Hartley guinea-pig. To be noted: Cavia porcellus; intravenous; acetylcholine-induced bronchospasm; read-out: Doses (ID50), Acetylcholine. An outline of the steps: (§1)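 Anesthetized (urethane), curarized, ventilated Dunkin-Hartley guinea-pigs with endotracheal pressure recorded after histamine, serotonin or acetylcholine challenge. Compound given i.v. 2 min before spasmogen, then in 3–4 increasing cumulative doses at 15-min intervals; six animals per compound and spasmogen.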

Series [4] concerns bronchospasm induced by histamine. Nature of the series: bronchospasmolytic activity (Konzett and Roessler), bronchospasm induced by histamine. The format is in vivo, Dunkin-Hartley guinea-pig. To be noted: Cavia porcellus; intravenous; histamine-induced bronchospasm; read-out: Doses (ID50), Histamine. The gist of the method:
as §1

The subject of series [5] is bronchospasm induced by serotonin. In words: bronchospasmolytic activity (Konzett and Roessler), bronchospasm induced by serotonin. To be noted: Cavia porcellus; intravenous; serotonin-induced bronchospasm; read-out: Doses (ID50), Serotonin. It is filed as in vivo, Dunkin-Hartley guinea-pig. The gist of the method: as §1
The nature of the next series: toxicity, Irwin's test. The format is in vivo. To be noted: i.p.; death of two animals out of three within 48 hours. The protocol:
Progressive doses of the compound to be tested are administered intraperitoneally to groups of three mice until the lethal dose is reached (dose which causes the death of two animals out of three within 48 hours).

In series [6] the test system is anaphylactic release of histamine, guinea-pig lung sections. In words: inhibition of the anaphylactic release of histamine (proper effect). It is filed as cell-based, Dunkin-Hartley guinea-pigs. To be noted: Cavia porcellus, in vitro, read-out: Minimum inhibitory dose (MID).
The test system of series [7] is amnesia induced by scopolamine. Nature of the series: multiple-trial passive avoidance: mnemic retention, amnesia induced by scopolamine.
Description: To this end, the method of multiple-trial passive avoidance has been used. […] The test is carried out on male Sprague-Dawley rats (160-200 g). which are kept in standard cages throughout the experiment. The apparatus used is a transparent square cage with 35 cm sides and 25 cm high, fitted with a grid floor which can be electrified. A rubber insulating mat (10×17 cm) is placed on the floor in one of the corners of the cage.
Each animal is subjected to four tests at times 0, 4, 24 and 28 hours. In the first test (time 0), the animal is placed on the rubber mat and the time which it takes to decide to leave this position to explore the cage is recorded. After 20 seconds of exploration, the rat receives an electric shock (3 seconds duration) in the paws, causing an escape reaction. The rat is immediately removed from the apparatus and replaced in its original cage. In the course of the three subsequent tests (times: 4, 24 and 28 hours), the animal is replaced on the rubber mat and the time taken to leave this position is recorded. As soon as the four paws of the animal rest on the grid, it receives an electric shock and is removed immediately from the apparatus.
At the start of the experiment, the rats are divided into 4 homogeneous groups of 15 animals. Thirty minutes before each test, each group of animals is subjected to a predetermined treatment:
Groups 1 and 2 are used in the first experiment (learning) and groups 3 and 4 in the second experiment (mnemic retention).
The differences found are analyzed statistically by the Mann-Whitney method.
Setting [8] is: 3 hours after induction of the Arthus reaction, read-out: Dose (ID30), 3 hours.
Where [9] appears, read: 5 hours after induction of the Arthus reaction, read-out: Dose (ID30), 5 hours.

With `C1CC(c2nc(NC3CC3)nc(N3CCOCC3)n2)C1` [Compound 4, 2-cyclobutyl-4-cyclopropylamino-6-morpholino-1,3,5-triazine], the ED30 in [1] (setting [8]) is 9 µmol/kg; in series [1] (setting [9]), 10 µmol/kg. In addition, the activity at 1 µM in the series on PMN granulocytes was determined as 45%. In addition, in series [2], the “Minimum potentiating dose (MPD)” value turned out to be 0.1 µmol/L. Besides, the ED50 in series [3] is 0.03 µmol/kg; in [4] it was 0.004 µmol/kg; in [5], 0.03 µmol/kg. In “toxicity, Irwin's test”, the Lethal dose is 165 mg/kg. Further, in series [6], the minimal effective concentration worked out at 0.32 µM. The “Period of remaining on the mat, group 4” value in series [7] (4 hours, 2.8 mg/kg i.p. + 0.5 mg scopolamine) stood at 44.5 s; in [7] (24 hours, 2.8 mg/kg i.p. + 0.5 mg scopolamine), 91.5 s; in series [7] (28 hours, 2.8 mg/kg i.p. + 0.5 mg scopolamine), 106.6 s; in [7] (time 0, 2.8 mg/kg i.p. + 0.5 mg scopolamine), 12.3 s.

For `OC1CN(c2nc(NC3CC3)nc(C3CC3)n2)C1` [Compound 13], the ED30 in series [1] (setting [8]) is 9 µmol/kg; in [1] (setting [9]) it was 4 µmol/kg. Further, the activity at 1 µM in the series on PMN granulocytes turned out to be 79%. Also, the “Minimum potentiating dose (MPD)” value in series [2] was found to be 1.0 µmol/L. The ED50 in series [3] was 1.3 µmol/kg; in series [4] it was 0.1 µmol/kg; in [5], 0.6 µmol/kg. The same compound returned a Lethal dose in “toxicity, Irwin's test” of 247.3 mg/kg. The minimal effective concentration in [6] was 1 µM. Also, the “Period of remaining on the mat, group 4” value amounted to 55.3 s in series [7] (4 hours, 2.5 mg/kg i.p. + 0.5 mg scopolamine); 92.5 s in series [7] (24 hours, 2.5 mg/kg i.p. + 0.5 mg scopolamine); 99.0 s in [7] (28 hours, 2.5 mg/kg i.p. + 0.5 mg scopolamine); 7.7 s in [7] (time 0, 2.5 mg/kg i.p. + 0.5 mg scopolamine).

Regarding `CCCc1nc(NC2CC2)nc(N2CCOCC2)n1` [Compound 1, 2-Cyclopropylamino-4-morpholino-6-n-propyl-1,3,5-triazine], the ED30 in series [1] (setting [8]) and in series [1] (setting [9]) was 2 µmol/kg in each case. Further, the activity at 1 µM in the series on PMN granulocytes was found to be 47%. Further, in series [2], the “Minimum potentiating dose (MPD)” value was determined as 0.32 µmol/L. The ED50 in series [3] was 0.1 µmol/kg; in series [4], 0.01 µmol/kg; in series [5], 0.01 µmol/kg. This compound returned a Lethal dose in “toxicity, Irwin's test” of 898 mg/kg. The minimal effective concentration in series [6] came to 0.1 µM. Further, the “Period of remaining on the mat, group 4” value in [7] (4 hours, 3.0 mg/kg i.p. + 0.5 mg scopolamine) is 42.8 s; in [7] (24 hours, 3.0 mg/kg i.p. + 0.5 mg scopolamine), 77.2 s; in series [7] (28 hours, 3.0 mg/kg i.p. + 0.5 mg scopolamine) it was 114.6 s; in series [7] (time 0, 3.0 mg/kg i.p. + 0.5 mg scopolamine), 19.2 s.

As for `C1CN(c2nc(NC3CC3)nc(C3CC3)n2)CCO1.Cl` [Compound 3, 2-cyclopropyl-4-cyclopropylamino-6-morpholino-1,3,5-triazine hydrochloride], the ED30 was found to be 0.8 µmol/kg in series [1] (setting [8]) and 0.4 µmol/kg in [1] (setting [9]). Further, the activity at 1 µM in the series on PMN granulocytes was 39%. In addition, the “Minimum potentiating dose (MPD)” value in series [2] turned out to be 0.32 µmol/L. Further, the ED50 was 0.07 µmol/kg in series [3], 0.03 µmol/kg in [4] and 0.1 µmol/kg in [5]. In the series “toxicity, Irwin's test”, this compound gave a Lethal dose of 297.8 mg/kg. Besides, the minimal effective concentration in [6] is 0.032 µM. Further, the “Period of remaining on the mat, group 4” value came to 35.5 s in [7] (4 hours, 1.0 mg/kg i.p. + 0.5 mg scopolamine); 105.0 s in [7] (24 hours, 1.0 mg/kg i.p. + 0.5 mg scopolamine); 121.0 s in [7] (28 hours, 1.0 mg/kg i.p. + 0.5 mg scopolamine); 6.5 s in [7] (time 0, 1.0 mg/kg i.p. + 0.5 mg scopolamine).
